Results reported in PubChem BioAssay (NCI).
Where “and” joins values, the source holds several entries; their conditions need not be identical. Equal entries are not always repeated.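 Assay format: 96-well plates, 48-hour exposure. GI50 marks 50% less growth. TGI: total growth inhibition.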

What was measured:
Test in all cases: NCI tumour cell line growth inhibition, 48 h
[1] = test system: 786-0 renal
[2] = test system: A498 renal
[3] = test system: ACHN renal
[4] = test system: BT-549 breast
[5] = test system: CCRF-CEM leukemia
[6] = test system: COLO 205 colon
[7] = test system: DU-145 prostate
[8] = test system: EKVX NSCLC
[9] = test system: HCC-2998 colon
[10] = test system: HCT-116 colon
[11] = test system: HCT-15 colon
[12] = test system: HL-60(TB) leukemia
[13] = test system: HOP-92 NSCLC
[14] = test system: HT29 colon
[15] = test system: IGROV1 ovarian
[16] = test system: KM12 colon
[17] = test system: LOX IMVI melanoma
[18] = test system: M14 melanoma
[19] = test system: MALME-3M melanoma
[20] = test system: MCF7 breast
[21] = test system: MDA-MB-435
[22] = test system: MDA-N
[23] = test system: MOLT-4 leukemia
[24] = test system: NCI-H226 lung
[25] = test system: NCI-H23 lung
[26] = test system: NCI-H522 lung
[27] = test system: NCI/ADR-RES ovarian
[28] = test system: OVCAR-3 ovarian
[29] = test system: OVCAR-4 ovarian
[30] = test system: OVCAR-5 ovarian
[31] = test system: OVCAR-8 ovarian
[32] = test system: PC-3 prostate
[33] = test system: RPMI-8226 leukemia
[34] = test system: SF-268 CNS
[35] = test system: SF-539 CNS
[36] = test system: SK-MEL-2 melanoma
[37] = test system: SK-MEL-28 melanoma
[38] = test system: SK-MEL-5 melanoma
[39] = test system: SK-OV-3 ovarian
[40] = test system: SNB-19 CNS
[41] = test system: SNB-75 CNS
[42] = test system: SR leukemia
[43] = test system: U251 CNS
[44] = test system: UACC-257 melanoma
[45] = test system: UACC-62 melanoma
[46] = test system: UO-31 renal

Compound: CC(=O)OC12CC(C)C3(O)C4C=C(C)C(=O)[C@@]4(O)CC(CO)=C[C@H]3C1C2(C)C (stereo partly drawn)
- GI50 [1]: > 1000 µM
- TGI [1]: > 1000 µM
- GI50 [2]: 0.346 µM
- GI50 [3]: > 1000 µM
- TGI [3]: > 1000 µM
- GI50 [4]: > 1000 µM
- TGI [4]: > 1000 µM
- TGI [5]: > 1000 µM
- GI50 [6]: 0.522 µM and 0.903 µM
- GI50 [7]: > 1000 µM
- TGI [7]: > 1000 µM
- GI50 [8]: > 1000 µM
- TGI [8]: > 1000 µM
- GI50 [9]: 2.35 µM
- GI50 [10]: > 1000 µM
- TGI [10]: > 1000 µM
- GI50 [11]: > 1000 µM
- TGI [11]: > 1000 µM
- GI50 [12]: 0.432 µM and 0.751 µM
- TGI [12]: > 1000 µM
- GI50 [13]: 45.4 µM
- TGI [13]: > 1000 µM
- GI50 [14]: > 1000 µM
- TGI [14]: > 1000 µM
- GI50 [15]: > 1000 µM
- TGI [15]: > 1000 µM
- GI50 [16]: > 1000 µM
- TGI [16]: > 1000 µM
- GI50 [17]: > 1000 µM
- TGI [17]: > 1000 µM
- GI50 [18]: > 1000 µM
- TGI [18]: > 1000 µM
- GI50 [19]: > 1000 µM
- TGI [19]: > 1000 µM
- GI50 [20]: > 1000 µM
- TGI [20]: > 1000 µM
- GI50 [21]: 0.205 µM
- GI50 [22]: 0.239 µM
- TGI [23]: > 1000 µM
- GI50 [24]: > 1000 µM
- TGI [24]: > 1000 µM
- GI50 [25]: > 1000 µM
- TGI [25]: > 1000 µM
- GI50 [26]: > 1000 µM
- TGI [26]: > 1000 µM
- GI50 [27]: > 1000 µM
- TGI [27]: > 1000 µM
- GI50 [28]: > 1000 µM
- TGI [28]: > 1000 µM
- GI50 [29]: > 1000 µM
- TGI [29]: > 1000 µM
- GI50 [30]: > 1000 µM
- TGI [30]: > 1000 µM
- GI50 [31]: > 1000 µM
- TGI [31]: > 1000 µM
- GI50 [32]: 0.228 µM
- TGI [32]: > 1000 µM
- GI50 [33]: > 1000 µM
- TGI [33]: > 1000 µM
- GI50 [34]: > 1000 µM
- TGI [34]: > 1000 µM
- GI50 [35]: > 1000 µM
- TGI [35]: > 1000 µM
- GI50 [36]: > 1000 µM
- TGI [36]: > 1000 µM
- GI50 [37]: > 1000 µM
- TGI [37]: > 1000 µM
- GI50 [38]: 33.4 µM
- TGI [38]: > 1000 µM
- TGI [39]: > 1000 µM
- GI50 [40]: > 1000 µM
- TGI [40]: > 1000 µM
- GI50 [41]: > 1000 µM
- TGI [41]: > 1000 µM
- GI50 [42]: > 1000 µM
- TGI [42]: > 1000 µM
- GI50 [43]: > 1000 µM
- TGI [43]: > 1000 µM
- GI50 [44]: > 1000 µM
- TGI [44]: > 1000 µM
- TGI [45]: > 1000 µM
- GI50 [46]: > 1000 µM
- TGI [46]: > 1000 µM
